According to US20230277486A1, “COMPOSITIONS FOR THE TREATMENT OF NON-ARTICULAR CARTILAGE-[…] CONDITIONS” (priority 2019, published 2023):

Columns and labels:
Assay type in all cases: cell-based
[1] = tested on: Primary human osteoblasts; assay: qPCR gene expression in osteoblast cultures exposed to PCA
Experimental: (§1) Cells: Primary human osteoblasts were obtained from Cell Applications, San Diego, Calif.
(§2) Cell culture: Osteoblasts were expanded in culture using the protocol provided by Cell Applications. Human Osteoblast Basal Media was supplemented with Human Osteoblast Growth Supplement (Cell Applications) containing 0.15 g/L calcium. Human Osteoblast Differentiation Media was purchased from Cell Applications, containing 0.20 g/L calcium.
(§3) Treatment: Osteoblasts were cultured in Human Osteoblast Basal Media and exposed to Protocatechuic acid (PCA) for up to 12 days at concentrations ranging from 1 μmolar to 100 μM. Osteoblasts were cultured without any PCA as negative control. Osteoblasts were cultured without any PCA in osteogenic media (Human Osteoblast Differentiation Media) as positive control (osteogenic media induces osteogenesis in osteoblasts). Each experiment was conducted in triplicate. Media were changed every 3 days.
Gene expression: Pro-osteogenic and anti-osteogenic gene expression was measured using qPCR on mRNA extracted from osteoblast cultures. Gene expression was computed as fold-change relative to control group (osteoblasts cultured without any PCA).

[2] = tested on: Primary human mesenchymal stem cells (MSC); assay: Calcium deposition in MSC cultures, Alizarin red stain at 21 days; settings: three cell lines, PCA 200 μM to 2000 μM, FIG. 8
Experimental: (§4) Cells: Primary human mesenchymal stem cells (MSC) were obtained from RoosterBio Inc., Frederick, Md.; ATCC, Manassas, Va.; and Cell Applications, San Diego, Calif.
(§5) Cell culture: MSC were expanded in culture, using the protocol provided by the respective suppliers, before being subjected to the experimental conditions.
(§6) Treatment: MSC were cultured in supplier-provided culture media and exposed to Protocatechuic acid (PCA) for 14 or 21 days at concentrations ranging from 200 μM to 2000 μM (2 mM). MSC were cultured without any PCA as negative control. To serve as positive control, MSC were cultured without any PCA in osteogenic media (Human Osteoblast Differentiation Media, Cell Applications, Catalog number: 417D-250). Osteogenic media is commonly used to induce osteogenesis. Each experiment was conducted in triplicate. Media was changed twice a week.
Calcium deposition: MSC cultures were tested for calcium deposition using Alizarin red stain at 21 days.

[3] = tested on: Primary human mesenchymal stem cells (MSC); assay: qPCR osteogenic gene expression in MSC cultures exposed to PCA; settings: three cell lines, PCA 200 μM to 2000 μM, 14 or 21 days
Experimental: as §4, §5, §6
Gene expression: Osteogenic gene expression was measured using qPCR on mRNA extracted from MSC cultures. Gene expression was computed as fold-change relative to the control group (MSC cultured without any PCA). MSC cultured in osteogenic media was used as positive control as this protocol is commonly used to induce osteogenesis.

[4] = tested on: Primary human osteoblasts; assay: Calcium deposition in osteoblast cultures, Alizarin red stain; settings: PCA 1 μM to 100 μM, 12 days of culture
Experimental: as §1, §2, §3
Calcium deposition: Osteoblast cultures were tested for calcium deposition using Alizarin red stain.

O=C(O)c1ccc(O)c(O)c1 [PCA, protocatechuic acid]
IL-1β gene expression (anti-osteogenic gene) ([1]; PCA 1 μM to 100 μM, FIG. 2): increasing
IL-6 gene expression (anti-osteogenic gene) ([1]; PCA 1 μM to 100 μM, FIG. 2): increasing
MMP-1 gene expression (anti-osteogenic gene) ([1]; PCA 1 μM to 100 μM, FIG. 2): suppressing
TNF-α gene expression (anti-osteogenic gene) ([1]; PCA 1 μM to 100 μM, FIG. 2): suppressing
BMP-6 expression, dose dependence ([1]; PCA 1 μM to 100 μM, FIG. 3): dose-dependent effect
osteogenic gene expression (IBSP, SPP1, TNAP, RunX2) ([1]; PCA 1 μM to 100 μM, up to 12 days, fold-change relative to control without PCA, FIG. 1): dose-dependent effect on all osteogenic genes tested
expression of osteogenic genes versus positive control (osteogenic media) ([1]; PCA 100 μmolar (highest dose)): even higher than that measured in the positive control
BMP-6 expression relative to negative control ([1]; PCA 100 μmolar, FIG. 3): greater than 2 fold
deposition of calcium [2]: visibly increased the deposition of calcium in one of the three cell lines
RUNX2 expression ([3]; FIG. 5): increased RUNX2 at most dose levels
RUNX2 expression versus positive control (osteogenic media) ([3]; FIG. 5): mostly higher than the positive control
expression of alkaline phosphatase (TNAP) ([3]; FIG. 6): increased the expression of alkaline phosphatase relative to negative control but not greater than the osteogenic conditions
expression of bone sialoprotein (IBSP) ([3]; FIG. 7): did not increase
expression of osteopontin (SPP1) ([3]; versus positive control (osteogenic media), FIG. 4): even higher than that measured in the positive control
calcium deposition [4]: did not increase deposition of calcium by detectable amounts
